One molecule from patent US20260373103A1, “COMPOSITIONS AND METHODS FOR PREVENTING CARDIOMYOPATHY” (OHIO STATE INNOVATION FOUNDATION, priority 2022, published 2026) can be followed below.

“Also recorded” adds a separate entry of the source.

The nature of data set [1]: Plasma pharmacokinetics after i.p. injection. The note with it: mice, 25 mg/kg i.p. In kind it is in vivo. Here is the method:
ST-539 was dissolved into 1% DMSO in Sesame oil and injected intraperitoneally (i.p.) at doses of 25 mg/kg. Serial blood samples were collected at 0.083, 0.25, 0.5, 1, 2, 4 and 8 hours post dosing. Mice were euthanized at 24 hours post dosing. A terminal blood sample was collected by cardiac puncture followed by harvesting the brain and heart. Transcardial perfusion was performed prior to brain collection. The blood samples were placed in microtubes pretreated with K2EDTA as an anticoagulant and kept on ice until centrifugation. The tissue samples were rinsed using cold distilled water to remove blood, blotted dry, weighed and stored on dry ice until LC/MS/MS analysis. Plasma was transferred into polypropylene tubes or 96-well plates, quick frozen on dry ice, and stored at −70±10 °C until LC/MS/MS analysis.

Data set [2] relates to liver tissue of mt-Keima mice. As to the kind of experiment: In vivo mitophagy in liver, mt-Keima mice. Also noted: species or system mouse. The conditions noted are these: 25 mg/kg/day i.p. for 5 days. As to the method: Fluorescent samples were examined with a Zeiss LSM 780 confocal microscope (Carl Zeiss MicroImaging). As previously described^2, fluorescence of mt-Keima was imaged in two channels via two sequential excitations (458 nm, green; 561 nm, red) and using a 570- to 695-nm emission range. Confocal experiments for parkin translocation were performed using a HeLa cell line stably expressing YFP-Parkin plated on 35 mm coverglass #1.5 chamber dishes (MatTek). These cells were treated for 2 h with DMSO as vehicle control or with A/O. YFP was imaged with a 514-nm excitation and 520- to 570-emission filters. Representative confocal images were processed using Imaris software by contrast linear stretch only. Calculation of mitophagy based on mt-Keima signal was performed using Zeiss ZEN software as previously described^2. The average of four images from each tissue sample was taken, and the values were normalized to the average value seen in the controls, assigned the value of one.
The mt-Keima mouse. […] The mice were lightly anesthetized with isoflurane and the ejection fraction, fractional shortening, and ventricular chamber dimensions were determined using 2-D-guided M mode images. Ejection fraction, fractional shortening, ventricular chamber dimensions, and left ventricular mass were calculated automatically using the VevoLAB program. […]

Another data set concerns mt-Keima mice. As to the kind of experiment: Echocardiographic analysis. In kind it is in vivo, mouse. The note with it: 25 mg/kg/day i.p. for 5 days, vs vehicle. As to the method:
The mt-Keima mouse. ST-539 was dissolved into 1% DMSO in Sesame oil and injected intraperitoneally (i.p.) at doses of 25 mg/kg/day with five total doses. Both male and female mice were used in this study. The control group received vehicle only. Echocardiographic measurements were taken using a Vevo3100 Visual Sonics (Visual Sonics) system. The mice were lightly anesthetized with isoflurane and the ejection fraction, fractional shortening, and ventricular chamber dimensions were determined using 2-D-guided M mode images. Ejection fraction, fractional shortening, ventricular chamber dimensions, and left ventricular mass were calculated automatically using the VevoLAB program. All experiments involving animals were approved by the Institutional Animal Care and Use Committee at The Ohio State University.

`CC(C)(C)NS(=O)(=O)c1cccc2c(NC(=O)C(Cc3ccccc3)NC(=O)c3ccccc3)cccc12` (stereo not shown) [ST-539]: in data set [1], the “area under the plasma drug concentration-time curve (AUC)” value is on record as ~ 4.2 μg·h/ml, the “half-life (T1/2)” value is “about 3.85 hr”, the “maximum plasma concentration (Cmax)” value was “about 1.4 μg/ml” and the “time to reach peak plasma concentration (Tmax)” value was found to be 1.33 h. Further, in data set [1] (plasma), the AUC0-inf was determined as 4240 ng·h/mL, the AUC0-last worked out at 4162 ng·h/mL, the Cmax (commonly the maximum level reached in the sampled fluid or tissue) was 1427 ng/mL and the MRT0-inf is 4.27 h. In data set [1] (plasma), the MRT0-last turned out to be 3.86 h; the T1/2 was 3.85 h; the Tlast came to 24.0 h; the Tmax (in general, the time from dosing to the highest level) is given as 1.33 h. Also, the hepatic mitophagy entry in data set [2] is “remains unchanged; also recorded: inability of ST-539 to induce hepatic mitophagy”. Further, in the data set on mt-Keima mice, the cardiac output entry is reported as “similar; also recorded: does not appear to impact cardiac output”, the “ejection fraction (EF)” value was “similar; also recorded: minimal differences” and the “left ventricular posterior wall thickness (LVPWs)” value is reported as “similar; also recorded: does not appear to impact”.
